Tests used:
[1] = Release of 10-hydroxycamptothecin from polymer-collagen composites; type: physicochemical; conditions: PBS at 37° C.
Procedure: Using the procedures from Example 2, a composite was constructed from a collagen-based scaffold with a poly(caprolactone) barrier layer and two 10-hydroxycaptothecin-loaded (2% w/w) poly(glycerol monostearate) layers. The composites were submerged in 0.150 mL of PBS at 37° C. At specific time points, an aliquot of release media was removed and the concentration of HCPT was measured by fluorescence spectroscopy (λEx=382 nm and λEm=550 nm, Photon Technology International QM-4/2005 spectrofluorimeter). A calibration curve was constructed from nine samples of known HCPT concentrations with linearity observed from 10 nM to 5 μM (R^2=0.999) from which the drug concentration of each aliquot was determined. After the completion of release, the HCPT remaining in each film was quantified. Films were dissolved CH2Cl2 to release encapsulated drug, the solvent evaporated, and PBS (150 mL) was added under rigorous stirring. The fluorescence spectrum was recorded and remaining drug measured.

[2] = tested on: 4T1 metastatic mammary mouse tumor cells; conditions: implants co-implanted with 4T1 cells; cited from earlier work
[3] = tested on: tumor; conditions: pouch sutured subcutaneously, loaded three days after tumor inoculation; 30 day observation period; cited from earlier work

CC[C@@]1(O)C(=O)OCc2c1cc1n(c2=O)Cc2cc3cc(O)ccc3nc2-1 [10-hydroxycamptothecin]
HCPT released over the first 24 hours ([1]; collagen scaffold, poly(caprolactone) barrier, two 2% w/w HCPT layers): about 10% | HCPT release rate after the first five weeks ([1]; same composite): 0.5 % release per day | HCPT release rate, first two weeks ([1]; same composite): 2 % loading per day | HCPT release rate, following three weeks ([1]; same composite): approximately 1 % per day | duration of continued release detected ([1]; same composite): at least 6 weeks

CC(C)CCCC(C)C1CCC2C3CC(C[131I])C4=C(CCC(O)C4)C3CCC12C (stereo not shown) [^131I-norcholesterol]
mice in which tumor growth was prevented [2]: 69%

Nc1ccn([C@@H]2O[C@H](CO)[C@@H](O)C2(F)F)c(=O)n1 [gemcitabine]
mice with no observable tumor mass [3]: Four of six
